Experimental data published in US6878751B1, “Administration of resveratrol to treat inflammatory respiratory disorders” (Imperial College of Science Technology and Medicine, priority 2000, dated 2005).

Experiments:
[1] = tested on: GM-CSF release, A549 cells; assay: GM-CSF release (sandwich assay) in IL-1β stimulated A549 cells; type: cell-based; conditions: Homo sapiens, 1 ng/ml IL-1β, read-out: EC50 for inhibition of GM-CSF release
Experimental: The human airway epithelial cell line A549 may be employed to study resveratrol inhibition of the release of IL-8 (interleukin 8) and GM-CSF (granulocyte macrophage-colony stimulating factor) by a 1 ng/ml stimulation with IL-1β (interleukin 1β). A549 cells, BEAS-2B cells and 16HBE-16o^− cells were stimulated with 1 ng/ml levels of IL-1β in the presence of resveratrol.
Cells, including the A549 cells, were cultured in Dulbecco's modified Eagle's medium (DMEM) 10% (v/v) fetal calf serum (FCS), 100 μg/ml penicillin and 100 μg/ml streptomycin. IL-8 release was measured by commercially available ELISA kit (R&D Systems).
GM-CSF release was measured in culture media by sandwich assay employing rat monoclonal capture antibody (Ab, mAb) against GM-CSF and a biotinylated rat anti-human GM-CSF mAb. The rat capture mAb against GM-CSF, diluted 1:500 in 0.1 M NaHCO3, was coated overnight at 4° C. onto 96 well plates. After washing, with wash buffer (NaCl: 145 mM, KCl: 4 mM, NaH2PO4: 10 mM, Tween-20: 0.05% (v/v), pH: 7.4) the plates were blocked by application of 10% (v/v) FCS at room temperature for 2 hours. After washing, samples and standards were added to the well plates and incubated at 4° C. overnight. […]

[2] = tested on: patients resistant to existing pulmonary steroid therapy; assay: Resveratrol supplementation vs increasing steroid dose in steroid resistant asthma (Example 7); type: in vivo, human; conditions: oral or pulmonary resveratrol added to inhaled steroid
From the text: Instead of steroid naive chid asthmatic patients (children are chosen because of the increased gravity of systemic endocrine effects for children, but adults can be analogously studied) selected in Example 6, patients reesistant to existing pulmonary steroid therapy are selected. The study is otherwise analogous to the study in […], except that in the first two groups the oral or inhaled resveratrol supplements the inhaled steroid dose being administered prior to the beginning of the evaluation, while the third group has the dosage of inhaled steroid being administered prior to the study doubled. Alternatively the third group can receive oral prednisone in the appropriate systemic dose. The evaluation is otherwise performed identically to that in Example 6.

[3] = tested on: NF-κB dependent transcription; assay: NF-κB luciferase reporter in stably transfected A549 cells; type: cell-based, human
Experimental: The expression of inflammatory genes was then evaluated in cells transformed with luciferase reporter genes containing sites for transcription factors (Tf, Tfs). The A549 cells were stably transfected by routine methods with luciferase reporters containing the transcription factors NF-κB, TRE (AP-1, TPA responsive element) and CRE (cAMP responsive element). Luciferase activity of cell lysates resuspended in […] cell lysis buffer mixed (40 mml resuspended lysate: 40 mml assay reagent) was measured using the Luciferase Assay System (Promega), with emitted light measured by a Turner DesignsTD-20/20 luminometer (Steptech Instruments Ltd., Stevenage, U.K.)

iNOS mRNA = iNOS mRNA expression by RT-PCR in cytomix-treated primary epithelial cells; type: cell-based, human; conditions: primary epithelial cells treated 4 hours with cytomix
Experimental: Human primary epithelial cells are cultured from normal donor tissue. Explant cultures of tissue obtained from normal human lung transplant donors provided human primary epithelial (HPE) cells. The HPE cells were cultured in Ham's F12 nutrient medium containing 5% (v/v) fetal calf serum (FCS), 1 μM hydrocortisone, 5 ng/ml EGF (epithelial growth factor), 10 μg/ml insulin, 10 nM retinoic acid, 0.5 μg/ml transferrin, 2 μg/ml triiodothyronine, 1.5 μg/ml NaHCO3, 100 μg/ml penicillin, 100 μg/ml streptomycin and 0.25 μg/m amphotericin B; the cells were incubated at 37° C. in a humidified atmosphere containing 95% (v/v) air, 5% (v/v) CO2. The HPE cells were cultured for the last 24 hours prior to the experimental treatments under the same conditions except that additive free Ham's F12 media was substituted for the supplemented Ham's F12 media described above.
Expression of mRNA for iNOS was evaluated by RT-PCR of RNA extracted from the cells using the Qiagen RNeasy mini kit as directed by the manufacturer (Crawley, Sussex, U.K.). RT-PCR was performed according to routine methods. […]

Structure (SMILES): Oc1ccc(/C=C/c2cc(O)cc(O)c2)cc1 [Resveratrol, 3,5,4′-trihydroxystilbene]
- EC50 [1]: 22 ± 8 µM
- systemic side effects compared with doubling steroid dosage [2]: reduced systemic side effects compared with doubling steroid dosage
- efficacy as supplement to existing steroid therapy vs doubling inhaled steroid dose ([2]; steroid resistant asthma): as or more effective as supplements to existing steroid therapy for antiinflammatory treatment than doubling inhaled steroid dose
- extent of inhibition of NF-κB dependent transcription [3]: completely
- EC50 ([3]; Homo sapiens, read-out: EC50 for inhibition of NF-κB dependent transcription): 21 ± 7 µM
- inhibition of iNOS expression as measured by mRNA (iNOS mRNA): inhibited iNOS expression
